The source of these data is publication PMC9821843, “Powerful Potential of Polyfluoroalkyl-Containing 4-Arylhydrazinylidenepyrazol-3-ones for Pharmaceuticals” (Molecules, 2022).

≈ marks a conversion by molar mass, not a printed value. Where “and” joins values, the source holds several entries; their conditions need not be identical. Identical values can stand only once. Like-named read-outs stand apart in the source and are kept apart here.

Data set [1] in a line: ABTS radical cation scavenging activity assay. More on the design: key to ABTS•+-scavenging activity, TEAC (trolox equivalent antioxidant capacity): TEAC = ratio of compound slope to Trolox slope vs ABTS absorbance. The settings on record: mean ± SEM; for ABTS•+-scavenging activity, TEAC (trolox equivalent antioxidant capacity): n.a. = inactive. The gist of the method:
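ABTS•+ (from 7 mM ABTS plus 2.45 mM persulfate) mixed with compound, 5 × 10^–7–4 × 10^–4 M, 1 h at 30 °C; absorbance decrease read at 734 nm. TEAC from slope ratio versus Trolox; IC50 as 50% radical reduction for compounds exceeding 60% reduction at 100 µM.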

The nature of data set [2]: Oxygen radical absorbance capacity (ORAC-FL) assay. The settings on record: n.a. = inactive; i.t.s. = interferes with test system. Summed up: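 Fluorescein oxidative degradation by the peroxyl radical generator AAPH is monitored in the presence of test compound, a HAT-based read-out. Activity is expressed relative to Trolox as reference antioxidant.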
The nature of data set [3]: Acute toxicity evaluation in mice (ip). The settings on record: CD-1, mouse, in vivo, 300 mg/kg. As to the method:
The toxicity evaluation was performed on CD-1 mice. […] The tested compounds in 1% starch mucilage were injected intraperitoneally into three mice. Then, animals were observed during 14 days, the number of deaths was counted and % of viability calculated.

The next data set concerns Sprague-Dawley (SD) rats. The data set can be described thus: Hot plate test (analgesic activity). The settings on record: ip; for change in vivo at 15 mg/kg: Rattus norvegicus. The class given is in vivo. Summed up: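 Test compounds were given i.p. as suspensions in 1% starch mucilage to SD rats (3 male, 3 female per group), vehicle as negative control. At 1 and 2 h post-dose, latency to nociceptive response (jumping, hind paw licking/shaking) on a 50 °C plate was recorded, 30 s cutoff.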

Data set [4] concerns Neisseria gonorrhoeae ATCC 49226/NCTC 12700. Description: Antibacterial activity against Neisseria gonorrhoeae. It is filed as cell-based. As to conditions: read-out: MIC against Neisseria gonorrhoeae.
Setting [5] is: hot plate test, rats, dose 15 mg/kg, 1 h, n.a. = inactive (p > 0.05), read-out: Latent Period Prolongation, % 1 h.
The mark [6] stands for this setting: hot plate test, rats, dose 15 mg/kg, 2 h, n.a. = inactive (p > 0.05), read-out: Latent Period Prolongation, % 2 h.
Setting [7] is: 1 h, read-out: Latent Period Prolongation, % 1 h.
Where [8] appears, read: 2 h, read-out: Latent Period Prolongation, % 2 h.

As usually defined, the IC50 is the concentration needed to halve the response being measured. For `O=C1NN=C(C(F)(F)F)/C1=N/Nc1ccccc1` [5a, (Z)-4-(2-Phenylhydrazinylidene)-5-(trifluoromethyl)-2,4-dihydro-3H-pyrazol-3-one], in data set [1], the IC50 is 42.8 ± 2.3 µM and the “ABTS•+-scavenging activity, TEAC (trolox equivalent antioxidant capacity)” value (from here on “ABTS•+-scavenging activity, TEAC”) came to 0.50 ± 0.03. Further, the “ORAC-FL (TE, antioxidant activity in Trolox equivalents)” value (“ORAC-FL” for short) in data set [2] was found to be 2.30 ± 0.20. Further, the survival at 14 days in data set [3] turned out to be 100%. Further, the change in vivo at 15 mg/kg in the data set on Sprague-Dawley (SD) rats (setting [5]) was 40%.
Broadly, the MIC is the least concentration at which growth counts as inhibited. With `Cc1ccc(N/N=C2\C(=O)NN=C2C(F)(F)F)cc1` [5b, (4Z)-4-[2-(4-Methylphenyl)hydrazinylidene]-5-(trifluoromethyl)-2,4-dihydro-3H-pyrazol-3-one], in data set [1], the concentration for half-maximal inhibition (IC50) was 46.2 ± 2.4 µM and the “ABTS•+-scavenging activity, TEAC” value is reported as 0.42 ± 0.03. Further, the “ORAC-FL” value in data set [2] turned out to be 2.37 ± 0.32. For the same compound, the survival at 14 days in data set [3] was 100%. The MIC in data set [4] came out at 62.5 µg/mL (≈ 231 µM). The change in vivo at 15 mg/kg with Sprague-Dawley (SD) rats (setting [5]) amounted to 69.5%. The change in vivo at 15 mg/kg in the data set on Sprague-Dawley (SD) rats (setting [6]) is 59.7%.
Take `O=C1NN=C(C(F)(F)F)/C1=N/Nc1ccc(Br)cc1` [5c, (4Z)-4-[2-(4-Bromophenyl)hydrazinylidene]-5-(trifluoromethyl)-2,4-dihydro-3H-pyrazol-3-one]: in data set [1], the IC50 was determined as 41.5 ± 2.4 µM and the “ABTS•+-scavenging activity, TEAC” value turned out to be 0.40 ± 0.02. In addition, the “ORAC-FL” value in data set [2] was 1.73 ± 0.21. Besides, in data set [3], the survival at 14 days was found to be 100%. In addition, the minimal inhibitory concentration (MIC) in data set [4] came to 125 µg/mL (≈ 373 µM). Further, the change in vivo at 15 mg/kg with Sprague-Dawley (SD) rats (setting [6]) came out at 51%.
`Cc1ccc(N/N=C2\C(=O)N(C)N=C2C(F)(F)F)cc1` [5d, (4Z)-2-Methyl-4-[2-(4-methylphenyl)hydrazinylidene]-5-(trifluoromethyl)-2,4-dihydro-3H-pyrazol-3-one]: in data set [1], the IC50 is 161 ± 3.2 µM and the “ABTS•+-scavenging activity, TEAC” value stood at 0.15 ± 0.01. In addition, the “ORAC-FL” value in data set [2] came out at 1.27 ± 0.15. In data set [3], this compound gave a survival at 14 days of 100%. In data set [4], the minimum inhibitory concentration (MIC) turned out to be 15.6 µg/mL (≈ 54.9 µM). The “analgesic activity in the hot plate test” value in the data set with Sprague-Dawley (SD) rats (SD rats, dose 15 mg/kg, 1 and 2 h) is “inactive”.
Take `Cc1ccc(N/N=C2\C(=O)N(c3ccccc3)N=C2C(F)(F)F)cc1` [5f, (4Z)-4-[2-(4-Methylphenyl)hydrazinylidene]-2-phenyl-5-(trifluoromethyl)-2,4-dihydro-3H-pyrazol-3-one]: the “ABTS•+-scavenging activity, TEAC” value in data set [1] was 0.1 ± 0.006. In addition, the “ORAC-FL” value in data set [2] is recorded as “i.t.s”. The same compound registered a survival at 14 days in data set [3] of 100%. Also, the minimum inhibitory concentration (MIC) in data set [4] turned out to be 62.5 µg/mL (≈ 180 µM). The change in vivo at 15 mg/kg in the data set with Sprague-Dawley (SD) rats (setting [5]) worked out at 63%; with Sprague-Dawley (SD) rats (setting [6]) it was 68%.
As for `CS(=O)(=O)c1ccc(N/N=C2\C(=O)N(c3ccccc3)N=C2C(F)(F)F)cc1` [5m, (4Z)-4-(2-[4-(Methylsulfonyl)phenyl]hydrazinylidene)-2-phenyl-5-(trifluoromethyl)-2,4-dihydro-3H-pyrazol-3-one], the “ORAC-FL” value in data set [2] is reported as “i.t.s”. Also, in data set [3], the survival at 14 days was 100%. In addition, in data set [4], the MIC was 125 µg/mL (≈ 305 µM). Also, the change in vivo at 15 mg/kg in the data set on Sprague-Dawley (SD) rats (setting [5]) amounted to 116%; with Sprague-Dawley (SD) rats (setting [6]), 144%.
Regarding `Cc1ccc(N/N=C2\C(=O)N(c3ccc(S(N)(=O)=O)cc3)N=C2C(F)(F)F)cc1` [5p, (4Z)-2-[4-(Aminosulfonyl)phenyl]-4-[2-(4-methylphenyl)hydrazinylidene]-5-(trifluoromethyl)-2,4-dihydro-3H-pyrazol-3-one], the “ABTS•+-scavenging activity, TEAC” value in data set [1] came to 0.03 ± 0.002. Besides, the “ORAC-FL” value in data set [2] is on record as “i.t.s”. In addition, the survival at 14 days in data set [3] amounted to 100%. Moreover, the MIC in data set [4] stood at 62.5 µg/mL (≈ 147 µM). The change in vivo at 15 mg/kg in the data set with Sprague-Dawley (SD) rats (setting [5]) is 62.1%; in the data set with Sprague-Dawley (SD) rats (setting [6]) it was 70.9%.
Consider `Cc1ccc(N/N=C2\C(=O)NN=C2C(F)(F)C(F)(F)F)cc1` [6a, (4Z)-4-[2-(4-Methylphenyl)hydrazinylidene]-5-(pentafluoroethyl)-2,4-dihydro-3H-pyrazol-3-one], for which, in data set [1], the IC50 is 46.8 ± 2.1 µM and the “ABTS•+-scavenging activity, TEAC” value was determined as 0.45 ± 0.03. For the same compound, the “ORAC-FL” value in data set [2] turned out to be 2.67 ± 0.29. This compound came in with a survival at 14 days in data set [3] of 100%. Moreover, in data set [4], the MIC came out at 62.5 µg/mL (≈ 195 µM). Besides, the change in vivo at 15 mg/kg with Sprague-Dawley (SD) rats (setting [5]) worked out at 83.9%. Further, the change in vivo at 15 mg/kg in the data set with Sprague-Dawley (SD) rats (setting [6]) was determined as 63.3%.
Consider `Cc1ccc(N/N=C2\C(=O)N(c3ccccc3)N=C2C(F)(F)C(F)(F)F)cc1` [6b, (4Z)-4-[2-(4-Methylphenyl)hydrazinylidene]-5-(pentafluoroethyl)-2-phenyl-2,4-dihydro-3H-pyrazol-3-one], for which the “ABTS•+-scavenging activity, TEAC” value in data set [1] was 0.04 ± 0.002. The survival at 14 days in data set [3] stood at 100%. Moreover, the MIC in data set [4] is 0.9 µg/mL (≈ 2.27 µM). In addition, the change in vivo at 15 mg/kg in the data set with Sprague-Dawley (SD) rats (setting [5]) came out at 158%; in the data set on Sprague-Dawley (SD) rats (setting [6]), 74.3%.
Consider `Cc1ccc(N/N=C2\C(=O)NN=C2C(F)(F)C(F)(F)C(F)(F)F)cc1` [7a, (4Z)-5-(Heptafluoropropyl)-4-[2-(4-methylphenyl)hydrazinylidene]-2,4-dihydro-3H-pyrazol-3-one], for which, in data set [1], the IC50 amounted to 41.5 ± 1.8 µM and the “ABTS•+-scavenging activity, TEAC” value came out at 0.54 ± 0.03. The “ORAC-FL” value in data set [2] is given as 2.80 ± 0.01. Besides, the survival at 14 days in data set [3] amounted to 100%. Further, the MIC in data set [4] was more than 250 µg/mL. Also, the change in vivo at 15 mg/kg in the data set with Sprague-Dawley (SD) rats (setting [7]) was determined as 42%. Also, in the data set with Sprague-Dawley (SD) rats (setting [8]), the change in vivo at 15 mg/kg amounted to 52%.
On to `Cc1ccc(N/N=C2\C(=O)N(c3ccccc3)N=C2C(F)(F)C(F)(F)C(F)(F)F)cc1` [7b, (4Z)-5-(Heptafluoropropyl)-4-[2-(4-methylphenyl)hydrazinylidene]-2-phenyl-2,4-dihydro-3H-pyrazol-3-one], for which the “ABTS•+-scavenging activity, TEAC” value in data set [1] is 0.03 ± 0.002. The same compound came in with a survival at 14 days in data set [3] of 100%. Besides, in data set [4], the MIC stood at 31.2 µg/mL (≈ 69.9 µM). The change in vivo at 15 mg/kg in the data set with Sprague-Dawley (SD) rats (setting [7]) was determined as 144%; in the data set with Sprague-Dawley (SD) rats (setting [8]), 82.3%.
`CC1=NNC(=O)/C1=N\Nc1ccc(C)cc1` [9a, (4Z)-5-Methyl-4-[2-(4-methylphenyl)hydrazinylidene]-2,4-dihydro-3H-pyrazol-3-one]: in data set [1], the IC50 is 25.4 ± 1.1 µM; the “ABTS•+-scavenging activity, TEAC” value is 0.86 and 0.86 ± 0.04. Further, the “ORAC-FL” value in data set [2] is 3.23 ± 0.50. This compound also gave a survival at 14 days in data set [3] of 100%. The minimal inhibitory concentration (MIC) in data set [4] was more than 250 µg/mL. Further, the change in vivo at 15 mg/kg in the data set on Sprague-Dawley (SD) rats (setting [5]) is 80.8%.
Take `CC1=NN(c2ccccc2)C(=O)/C1=N\Nc1ccc(C)cc1` [9b, (4Z)-5-Methyl-4-[2-(4-methylphenyl)hydrazinylidene]-2-phenyl-2,4-dihydro-3H-pyrazol-3-one]: in data set [1], the half-maximal inhibitory concentration (IC50) turned out to be 28.3 ± 1.2 µM; the “ABTS•+-scavenging activity, TEAC” value is 0.8 and 0.80 ± 0.05. Besides, in data set [2], the “ORAC-FL” value came out at 2.67 ± 0.58. In addition, the survival at 14 days in data set [3] is 100%. Moreover, in data set [4], the MIC is more than 250 µg/mL. The change in vivo at 15 mg/kg in the data set with Sprague-Dawley (SD) rats (setting [6]) was determined as 140%.
